Values joined by “and” are separate entries in the source; they are usually repeats but may differ in a detail not shown here. Identical values can stand only once. Like-named read-outs stand apart in the source and are kept apart here. Marks after values point to notes of the source that are not given here.
Key:
[1] = system: carrageen-induced paw edema; assay: Carrageenan-induced paw edema bioassay; assay type: in vivo, rat; parameters: concentration or dose not given beside the values
Experimental: The compounds’ efficacy was measured as edema inhibition percentage (EI %) after 1, 3, and 5 h of carrageenan injection vs. the conventional medicine Celecoxib.
Compounds 3c, 3e, 3h, and 3j were chosen for in vivo anti-inflammatory testing using the carrageen-induced paw edema bioassay method described by [Winter et al, (1962)]. The compounds’ efficacy was measured as edema inhibition percentage (EI%) after 1, 3, and 5 h of carrageenan injection vs. the conventional medicine Celecoxib.

mPGES-1 [2] = molecular target: T1, mPGES-1 (Homo sapiens, UniProt O14684); assay: Cell-free mPGES-1 enzyme assay (microsomal fractions from IL-1β-stimulated A549 cells); assay type: biochemical
T1 construct: microsomal fractions from IL-1β-stimulated A549 cells served as the enzyme source; endogenous in cells; host or cells: A549 cells (IL-1β-stimulated), microsomal fraction
T1 sequence (O14684 1-152): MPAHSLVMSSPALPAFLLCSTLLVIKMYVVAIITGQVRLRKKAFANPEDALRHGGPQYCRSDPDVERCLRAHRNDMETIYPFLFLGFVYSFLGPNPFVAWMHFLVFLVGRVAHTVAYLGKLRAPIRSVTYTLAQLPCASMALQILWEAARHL
Experimental: A cell-free assay was conducted to evaluate the capacity of compounds […] to act as inhibitors of mPGES-1. In this assay, microsomal fractions from IL-1β-stimulated A549 cells served as the enzyme source ([Gürses et al., 2021]). During the initial screening phase, compounds 3a–j were examined for their effects on mPGES-1 at a concentration of 10 µM.
Microsomal measures of A549 cells expressing mPGES-1 were made in accordance with prior research findings ([Koeberle et al., 2008]). These cells were cultivated in Dulbecco’s Modified Eagle Medium and resuspended in a homogenization buffer. Subsequently, the microsomes were subjected to pre-incubation with either assessed compounds or a carrier solution containing 0.1 percent DMSO. The enzymatic process was halted by introducing FeCl3, citric acid, and 11-PGE2 as an internal standard. The quantities of Prostaglandin E2 (PGE2) were measured via RP-HPLC methodologies.

rat intestinal mucosa = assay: Gastric ulcerogenic activity (macroscopic inspection); assay type: in vivo; parameters: Score: Severity lesions: scale not given here; conditions: oral 10 mg/kg
Experimental: The two most common side effects of long-term NSAID use are gastrointestinal erosion and ulcers ([Hendawy et al., 2021]). As a result, we were curious about the ulcerogenic potential of the most efficacious drugs, 3e and 3j, when given orally. The ulcerogenic effects of 3e and 3j were assessed by macroscopic inspection of rat intestinal mucosa after oral administration of 10 mg/kg of 3e, 3j, indomethacin, and celecoxib ([Manivannan and Chaturvedi, 2011]).
The ulcerogenic effects of compounds 3e and 3j were evaluated by macroscopic examination of rat intestinal mucosa after oral administration of 10 mg/kg of these compounds and indomethacin and celecoxib ([Manivannan and Chaturvedi, 2011]). See Appendix A for details.

soya bean 5-LOX = molecular target: T2, soya bean 5-LOX (Glycine max, UniProt P08170); assay: 5-LOX enzyme assay (EIA kit, Cayman 760700); assay type: biochemical
T2 construct: purchased Cayman Chemical, Ann Arbor, Michigan, USA 760700
T2 sequence (P08170 1-839): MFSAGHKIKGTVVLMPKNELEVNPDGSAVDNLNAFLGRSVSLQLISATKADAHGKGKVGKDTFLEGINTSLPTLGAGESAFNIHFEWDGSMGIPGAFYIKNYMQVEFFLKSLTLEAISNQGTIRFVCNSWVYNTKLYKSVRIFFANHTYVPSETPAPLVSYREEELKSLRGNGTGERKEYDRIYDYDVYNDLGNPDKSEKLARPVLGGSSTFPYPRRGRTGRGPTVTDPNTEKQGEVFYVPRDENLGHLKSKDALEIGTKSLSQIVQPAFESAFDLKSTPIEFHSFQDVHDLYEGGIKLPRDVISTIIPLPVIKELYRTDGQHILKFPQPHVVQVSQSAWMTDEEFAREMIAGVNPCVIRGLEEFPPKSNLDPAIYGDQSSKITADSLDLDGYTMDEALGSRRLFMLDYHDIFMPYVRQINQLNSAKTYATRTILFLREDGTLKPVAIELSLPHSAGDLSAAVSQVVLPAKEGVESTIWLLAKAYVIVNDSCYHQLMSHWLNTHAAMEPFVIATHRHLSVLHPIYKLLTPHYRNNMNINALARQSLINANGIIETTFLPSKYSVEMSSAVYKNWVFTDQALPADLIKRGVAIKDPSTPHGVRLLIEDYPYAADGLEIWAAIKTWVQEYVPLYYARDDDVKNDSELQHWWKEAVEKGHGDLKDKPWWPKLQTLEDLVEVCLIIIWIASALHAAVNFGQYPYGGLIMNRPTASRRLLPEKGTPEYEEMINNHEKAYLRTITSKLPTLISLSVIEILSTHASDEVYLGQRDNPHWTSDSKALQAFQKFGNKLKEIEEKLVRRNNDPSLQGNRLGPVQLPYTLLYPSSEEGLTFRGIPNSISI
Text: The capacity of compounds 3a–j to inhibit the enzyme 5-lipoxygenase (5-LOX) has been investigated ([Youssif et al., 2019]).
The study used an enzyme immune assay (EIA) kit (catalogue no. 760700, Cayman Chemical, Ann Arbor, Michigan, USA) to evaluate the inhibitory activity of target analogues against soya bean 5-LOX, ensuring compliance with manufacturer’s instructions and protocols, and calculating IC50 values ([Roschek et al., 2009]).

PGE2 = assay: Rat serum PGE2 after carrageenan (ELISA); assay type: in vivo; conditions: 4 hours after subcutaneous carrageenan
Text: Inhibiting PGE2 is a crucial strategy in anti-inflammatory therapy, playing a pivotal role in managing inflammation and its associated conditions.
(§1) In this study, specializing ELISA kits were used to determine the concentration of inflammatory cytokines PGE2, IL-6, and TNF-α. The study’s findings were examined in accordance with the instructions provided by the manufacturer, and measurements were taken based on the optical density at 450 nm.

TNF-α = assay: Rat serum TNF-α after carrageenan (ELISA); assay type: in vivo
Text: as §1

IL-6 = assay: Rat serum IL-6 after carrageenan (ELISA); assay type: in vivo
Text: as §1

mPGES-1 [3] = molecular target: T1, mPGES-1; conditions: cited from earlier work; for IC50: ref Lauro et al., 2014
5-LOX = conditions: cited from earlier work
[4] = system: PGE2 production in A549 cells; parameters: method as in Kim et al., 2021; conditions: ref Kim et al., 2021; cited from earlier work

With `COc1ccc(C2NC(=O)NC(C)=C2C(=O)Nc2ccc(S(N)(=O)=O)cc2)cc1OC` (centres unmarked) [Compound 3j, 4-[3,4-dimethoxyphenyl]-6-methyl-2-oxo-N-[4-sulfamoylphenyl]-1,2,3,4-tetrahydropyrimidine-5-carboxamide] the “% Of edema inhibition 1 h” value ([1]; 1 h after carrageenan injection) was 38%, the “% Of edema inhibition 3 h” value ([1]; 3 h after carrageenan injection) was 60% and the “% Of edema inhibition 5 h” value ([1]; 5 h after carrageenan injection) was 71%. For the same compound, the remaining activity at 10 µM (mPGES-1 [2]; 10 µM compound, cell-free, A549 microsomes, read-out: mPGES-1 RA (%) 10 µM (residual activity percentage)) was 24.7%, the IC50 (mPGES-1 [2]; cell-free, A549 microsomes) was 0.92 µM and the “fold more potent than the reference MK886 (mPGES-1)” value (mPGES-1 [2]; from IC50 values) was 2.4 fold. For the same compound, the melting point was 266 to 267 °C, the “Score: No. of gastric ulcers” value (rat intestinal mucosa) was 0 and the “Score: Severity lesions” value (rat intestinal mucosa) was 0. The “Ulceration in the isolated rat stomach (in words)” value (rat intestinal mucosa) was “did not generate ulceration”, the IC50 (soya bean 5-LOX) was 1.98 µM and 1.89 µM and the PGE2 %inhibition (PGE2) was 79.20% and 79%. The PGE2 serum concentration (PGE2; mean ± SE) was 62.60 ± 2.75 ^b pg/mL, the TNFα %inhibition (TNF-α) was 71% and the TNFα serum concentration (TNF-α; mean ± SE) was 68.50 ± 2.00^bc pg/mL. For the same compound, the IL-6 %inhibition (IL-6) was 77% and the IL-6 serum concentration (IL-6; mean ± SE) was 85.50 ± 2.35^bc pg/mL.

For `CC1=C(C(=O)OCc2ccccc2)C(c2ccc(-c3cccc(C(F)(F)F)c3)o2)NC(=O)N1CCC(=O)O` (centres unmarked) [III], the “fold higher activity than compound I (mPGES-1)” value (mPGES-1 [3]; ref Terracciano et al., 2015) is listed as 10 fold.

For `CCOC(=O)C1=C(C(=O)c2ccc(OC)cc2)C(c2ccc(-c3cccc(C(F)(F)F)c3)o2)NC(=O)N1C` (centres unmarked) [II], the IC50 (mPGES-1 [3]) is listed as 7.56 ± 0.94 µM.

In the case of `CCOC(=O)CCSC1=NC(c2ccccc2)C=C(c2ccccc2)N1` (centres unmarked) [IV], the “5-LOX % inhibition at 100 μg/mL” value (5-LOX; 100 μg/mL, ref Lokwani et al., 2015) is listed as 51.84% and the IC50 (5-LOX; ref Lokwani et al., 2015) is listed as 19.1 µM.

For `CCOC(=O)C1=C(C(=O)c2ccc(OC)cc2)C(c2ccc(-c3cccc(C(F)(F)F)c3)o2)NC(=O)N1` (centres unmarked) [I], the IC50 (mPGES-1 [3]) is listed as 4.16 ± 0.47 µM.

In the case of `O=C(Cc1cn(-c2ccccc2)nc1-c1ccc(Cl)cc1)NS(=O)(=O)c1ccc(Cl)cc1` [VIII], the “folds more potent than lonazolac calcium against mPGES-1” value (mPGES-1 [3]; ref Elkady et al., 2012) is given as 19 fold, the IC50 (5-LOX; ref Elkady et al., 2012) is given as 2.9 µM and the “folds more potent than lonazolac calcium against 5-LOX” value (5-LOX; ref Elkady et al., 2012) is given as 20 fold.

For `COc1ccc2c(c1)c(CC(=O)NS(=O)(=O)c1ccc(C)cc1)c(C)n2C(=O)c1ccc(Cl)cc1` [VII], the IC50 (5-LOX; ref Elkady et al., 2012) is listed as 2.9 µM.

In the case of `O=C(Nc1ccc(OCCCCc2ccccc2)cc1)N(Cc1ccccc1)S(=O)(=O)c1ccc(Cl)cc1` [VI], the IC50 [4] is given as 0.24 µM and the “fold more active than the standard inhibitor MK-886 (PGE2 production)” value [4] is given as “about 9 fold”.

For `COC(=O)C1=C(C)NC(Nc2cc(O)cc(Cl)c2)=NC1c1ccc(Cl)cc1` (centres unmarked) [V], the 5-LOX % inhibition (5-LOX; 2.46 µM concentration, ref Venugopala et al., 2015) is given as 81.19%.

Reference: publication PMC11117333, “Design and synthesis of new dihydropyrimidine/sulphonamide hybrids as promising anti-inflammatory agents via dual mPGES-1/5-LOX inhibition” (Frontiers in Chemistry, 2024)
